ChEMBL document CHEMBL1255447, “Efflux pumps, OprD porin, AmpC beta-lactamase, and multiresistance in Pseudomonas aeruginosa isolates from cystic fibrosis patients” (2010)
Converted amounts (≈) assume the structure as drawn.

Key:
Pseudomonas aeruginosa [1] = assay: Antimicrobial activity against Pseudomonas aeruginosa M1251 by Etest
Pseudomonas aeruginosa [2] = assay: Antimicrobial activity against Pseudomonas aeruginosa R70 Etest; assay type: functional
Pseudomonas aeruginosa [3] = assay: Antimicrobial activity against Pseudomonas aeruginosa R20 Etest; assay type: functional
Pseudomonas aeruginosa [4] = assay: Antimicrobial activity against Pseudomonas aeruginosa AHP Etest; assay type: functional
Pseudomonas aeruginosa [5] = assay: Antimicrobial activity against Pseudomonas aeruginosa Z799/61 by Etest; assay type: functional
Pseudomonas aeruginosa [6] = assay: Antimicrobial activity against Pseudomonas aeruginosa 1405-con D2 by Etest; assay type: functional
Pseudomonas aeruginosa [7] = assay: Antimicrobial activity against Pseudomonas aeruginosa isolate 1530c from fibrosis patient by Etest; assay type: functional
Pseudomonas aeruginosa [8] = assay: Antimicrobial activity against Pseudomonas aeruginosa isolate 1693c from fibrosis patient by Etest; assay type: functional
Pseudomonas aeruginosa [9] = assay: Antimicrobial activity against Pseudomonas aeruginosa isolate 17145c from fibrosis patient by Etest; assay type: functional
Pseudomonas aeruginosa [10] = assay: Antimicrobial activity against Pseudomonas aeruginosa isolate 1529c from fibrosis patient by Etest; assay type: functional
Pseudomonas aeruginosa [11] = assay: Antimicrobial activity against Pseudomonas aeruginosa isolate 14169c from fibrosis patient by Etest; assay type: functional
Pseudomonas aeruginosa [12] = assay: Antimicrobial activity against Pseudomonas aeruginosa isolate 1247c from fibrosis patient by Etest; assay type: functional
Pseudomonas aeruginosa [13] = assay: Antimicrobial activity against Pseudomonas aeruginosa isolate 1681c from fibrosis patient by Etest; assay type: functional
Pseudomonas aeruginosa [14] = assay: Antimicrobial activity against Pseudomonas aeruginosa isolate 1352c from fibrosis patient by Etest; assay type: functional
Pseudomonas aeruginosa [15] = assay: Antimicrobial activity against Pseudomonas aeruginosa isolate 1333c from fibrosis patient by Etest; assay type: functional
Pseudomonas aeruginosa [16] = assay: Antimicrobial activity against Pseudomonas aeruginosa isolate 1248c from fibrosis patient by Etest; assay type: functional
Pseudomonas aeruginosa [17] = assay: Antimicrobial activity against Pseudomonas aeruginosa isolate 15110c from fibrosis patient by Etest; assay type: functional
Pseudomonas aeruginosa [18] = assay: Antimicrobial activity against Pseudomonas aeruginosa isolate 12142c from fibrosis patient by Etest; assay type: functional
Pseudomonas aeruginosa [19] = assay: Antimicrobial activity against Pseudomonas aeruginosa isolate 1712c from fibrosis patient by Etest; assay type: functional
Pseudomonas aeruginosa [20] = assay: Antimicrobial activity against Pseudomonas aeruginosa isolate 1495c from fibrosis patient by Etest; assay type: functional
Pseudomonas aeruginosa [21] = assay: Antimicrobial activity against Pseudomonas aeruginosa isolate 1726 from fibrosis patient by Etest; assay type: functional
Pseudomonas aeruginosa [22] = assay: Antimicrobial activity against Pseudomonas aeruginosa isolate 15107 from fibrosis patient by Etest; assay type: functional
Pseudomonas aeruginosa [23] = assay: Antimicrobial activity against Pseudomonas aeruginosa isolate 16008 from fibrosis patient by Etest; assay type: functional
Pseudomonas aeruginosa [24] = assay: Antimicrobial activity against Pseudomonas aeruginosa isolate 13167 from fibrosis patient by Etest; assay type: functional
Pseudomonas aeruginosa [25] = assay: Antimicrobial activity against Pseudomonas aeruginosa isolate 1240 from fibrosis patient by Etest; assay type: functional
Pseudomonas aeruginosa [26] = assay: Antimicrobial activity against Pseudomonas aeruginosa isolate 3149 from fibrosis patient by Etest; assay type: functional
Pseudomonas aeruginosa [27] = assay: Antimicrobial activity against Pseudomonas aeruginosa isolate 12102 from fibrosis patient by Etest; assay type: functional
Pseudomonas aeruginosa [28] = assay: Antimicrobial activity against Pseudomonas aeruginosa isolate 1253 from fibrosis patient by Etest; assay type: functional
Pseudomonas aeruginosa [29] = assay: Antimicrobial activity against Pseudomonas aeruginosa isolate 1665 from fibrosis patient by Etest; assay type: functional
Pseudomonas aeruginosa [30] = assay: Antimicrobial activity against Pseudomonas aeruginosa isolate 17112 from fibrosis patient by Etest; assay type: functional
Pseudomonas aeruginosa [31] = assay: microbe, parasite or virus in culture; settings: 2779-con
Description: Antimicrobial activity against Pseudomonas aeruginosa 2779-con by Etest

Pseudomonas aeruginosa [32] = assay: microbe, parasite or virus in culture; settings: isolate 13120
Description: Antimicrobial activity against Pseudomonas aeruginosa isolate 13120 from fibrosis patient by Etest

| SMILES | MIC (Pseudomonas aeruginosa [1]) [µg/mL] | MIC (Pseudomonas aeruginosa [2]) [µg/mL] | MIC (Pseudomonas aeruginosa [3]) [µg/mL] | MIC (Pseudomonas aeruginosa [4]) [µg/mL] | MIC (Pseudomonas aeruginosa [5]) [µg/mL] | MIC (Pseudomonas aeruginosa [6]) [µg/mL] | MIC (Pseudomonas aeruginosa [7]) [µg/mL] | MIC (Pseudomonas aeruginosa [8]) [µg/mL] | MIC (Pseudomonas aeruginosa [9]) [µg/mL] | MIC (Pseudomonas aeruginosa [10]) [µg/mL] | MIC (Pseudomonas aeruginosa [11]) [µg/mL] | MIC (Pseudomonas aeruginosa [12]) [µg/mL] | MIC (Pseudomonas aeruginosa [13]) [µg/mL] | MIC (Pseudomonas aeruginosa [14]) [µg/mL] | MIC (Pseudomonas aeruginosa [15]) [µg/mL] | MIC (Pseudomonas aeruginosa [16]) [µg/mL] | MIC (Pseudomonas aeruginosa [17]) [µg/mL] | MIC (Pseudomonas aeruginosa [18]) [µg/mL] | MIC (Pseudomonas aeruginosa [19]) [µg/mL] | MIC (Pseudomonas aeruginosa [20]) [µg/mL] | further results |
| --- | --- | --- | --- | --- | --- | --- | --- | --- | --- | --- | --- | --- | --- | --- | --- | --- | --- | --- | --- | --- | --- |
| NC[C@H]1O[C@H](O[C@H]2[C@H](O)[C@@H](O[C@H]3O[C@H](CO)[C@@H](O)[C@H](N)[C@H]3O)[C@H](N)C[C@@H]2N)[C@H](N)C[C@@H]1O [TOBRAMYCIN] | 0.25 (≈ 0.535 µM) | 0.5 (≈ 1.07 µM) | 0.5 (≈ 1.07 µM) | ≤ 0.12 | 0.25 (≈ 0.535 µM) | 2 (≈ 4.28 µM) | 4 (≈ 8.56 µM) | 2 (≈ 4.28 µM) | 16 (≈ 34.2 µM) | 16 (≈ 34.2 µM) | 4 (≈ 8.56 µM) | 8 (≈ 17.1 µM) | 16 (≈ 34.2 µM) | 16 (≈ 34.2 µM) | 8 (≈ 17.1 µM) | 32 (≈ 68.4 µM) | > 32 | > 32 | 16 (≈ 34.2 µM) | 8 (≈ 17.1 µM) | MIC (Pseudomonas aeruginosa [21]): 0.5 µg/mL (≈ 1.07 µM); MIC (Pseudomonas aeruginosa [22]): 2 µg/mL (≈ 4.28 µM); MIC (Pseudomonas aeruginosa [23]): 4 µg/mL (≈ 8.56 µM); MIC (Pseudomonas aeruginosa [24]): 4 µg/mL (≈ 8.56 µM); MIC (Pseudomonas aeruginosa [25]): 0.5 µg/mL (≈ 1.07 µM); MIC (Pseudomonas aeruginosa [26]): > 32 µg/mL; MIC (Pseudomonas aeruginosa [27]): 1 µg/mL (≈ 2.14 µM); MIC (Pseudomonas aeruginosa [28]): 4 µg/mL (≈ 8.56 µM); MIC (Pseudomonas aeruginosa [29]): 32 µg/mL (≈ 68.4 µM); MIC (Pseudomonas aeruginosa [30]): 0.5 µg/mL (≈ 1.07 µM); MIC (Pseudomonas aeruginosa [31]): 1 µg/mL (≈ 2.14 µM); MIC (Pseudomonas aeruginosa [32]): 0.25 µg/mL (≈ 0.535 µM) |
| NCC[C@H](O)C(=O)N[C@@H]1C[C@H](N)[C@@H](O[C@H]2O[C@H](CN)[C@@H](O)[C@H](O)[C@H]2O)[C@H](O)[C@H]1O[C@H]1O[C@H](CO)[C@@H](O)[C@H](N)[C@H]1O [AMIKACIN] | 1 (≈ 1.71 µM) | 1 (≈ 1.71 µM) | ≤ 0.5 | ≤ 0.5 | 1 (≈ 1.71 µM) | 4 (≈ 6.83 µM) | 32 (≈ 54.6 µM) | 1 (≈ 1.71 µM) | 64 (≈ 109 µM) | 64 (≈ 109 µM) | 32 (≈ 54.6 µM) | > 64 | 64 (≈ 109 µM) | > 64 | 64 (≈ 109 µM) | > 64 | > 64 | > 64 | > 64 | > 64 | MIC (Pseudomonas aeruginosa [21]): 2 µg/mL (≈ 3.42 µM); MIC (Pseudomonas aeruginosa [22]): > 64 µg/mL; MIC (Pseudomonas aeruginosa [23]): 32 µg/mL (≈ 54.6 µM); MIC (Pseudomonas aeruginosa [24]): 64 µg/mL (≈ 109 µM); MIC (Pseudomonas aeruginosa [25]): 4 µg/mL (≈ 6.83 µM); MIC (Pseudomonas aeruginosa [26]): > 64 µg/mL; MIC (Pseudomonas aeruginosa [27]): 4 µg/mL (≈ 6.83 µM); MIC (Pseudomonas aeruginosa [28]): 32 µg/mL (≈ 54.6 µM); MIC (Pseudomonas aeruginosa [29]): > 64 µg/mL; MIC (Pseudomonas aeruginosa [30]): 1 µg/mL (≈ 1.71 µM); MIC (Pseudomonas aeruginosa [31]): 1 µg/mL (≈ 1.71 µM); MIC (Pseudomonas aeruginosa [32]): 1 µg/mL (≈ 1.71 µM) |
| CO/N=C(\C(=O)N[C@@H]1C(=O)N2C(C(=O)O)=C(COC(C)=O)CS[C@H]12)c1csc(N)n1 [CEFOTAXIME] | 128 (≈ 281 µM) | 256 (≈ 562 µM) | 4 (≈ 8.78 µM) | 4 (≈ 8.78 µM) | 0.5 (≈ 1.1 µM) | > 256 | 32 (≈ 70.3 µM) | 128 (≈ 281 µM) | 128 (≈ 281 µM) | 32 (≈ 70.3 µM) | 128 (≈ 281 µM) | 128 (≈ 281 µM) | > 256 | > 256 | > 256 | > 256 | > 256 | > 256 | > 256 | > 256 | MIC (Pseudomonas aeruginosa [21]): 16 µg/mL (≈ 35.1 µM); MIC (Pseudomonas aeruginosa [22]): 256 µg/mL (≈ 562 µM); MIC (Pseudomonas aeruginosa [23]): 64 µg/mL (≈ 141 µM); MIC (Pseudomonas aeruginosa [24]): > 256 µg/mL; MIC (Pseudomonas aeruginosa [25]): 256 µg/mL (≈ 562 µM); MIC (Pseudomonas aeruginosa [26]): 64 µg/mL (≈ 141 µM); MIC (Pseudomonas aeruginosa [27]): 64 µg/mL (≈ 141 µM); MIC (Pseudomonas aeruginosa [28]): 128 µg/mL (≈ 281 µM); MIC (Pseudomonas aeruginosa [29]): > 256 µg/mL; MIC (Pseudomonas aeruginosa [30]): > 256 µg/mL; MIC (Pseudomonas aeruginosa [31]): > 256 µg/mL; MIC (Pseudomonas aeruginosa [32]): 128 µg/mL (≈ 281 µM) |
| C[C@@H](O)[C@H]1C(=O)N2C(C(=O)O)=C(S[C@@H]3CN[C@H](C(=O)N(C)C)C3)[C@H](C)[C@H]12 [MEROPENEM] | 8 (≈ 20.9 µM) | > 32 | 0.5 (≈ 1.3 µM) | 0.25 (≈ 0.652 µM) | ≤ 0.06 | 8 (≈ 20.9 µM) | 0.5 (≈ 1.3 µM) | 2 (≈ 5.22 µM) | 4 (≈ 10.4 µM) | 4 (≈ 10.4 µM) | 4 (≈ 10.4 µM) | 4 (≈ 10.4 µM) | 8 (≈ 20.9 µM) | 16 (≈ 41.7 µM) | 16 (≈ 41.7 µM) | 16 (≈ 41.7 µM) | 16 (≈ 41.7 µM) | 32 (≈ 83.4 µM) | 32 (≈ 83.4 µM) | > 32 | MIC (Pseudomonas aeruginosa [21]): 0.12 µg/mL (≈ 0.313 µM); MIC (Pseudomonas aeruginosa [22]): 2 µg/mL (≈ 5.22 µM); MIC (Pseudomonas aeruginosa [23]): 4 µg/mL (≈ 10.4 µM); MIC (Pseudomonas aeruginosa [24]): 4 µg/mL (≈ 10.4 µM); MIC (Pseudomonas aeruginosa [25]): 8 µg/mL (≈ 20.9 µM); MIC (Pseudomonas aeruginosa [26]): 8 µg/mL (≈ 20.9 µM); MIC (Pseudomonas aeruginosa [27]): 16 µg/mL (≈ 41.7 µM); MIC (Pseudomonas aeruginosa [28]): 32 µg/mL (≈ 83.4 µM); MIC (Pseudomonas aeruginosa [29]): > 32 µg/mL; MIC (Pseudomonas aeruginosa [30]): > 32 µg/mL; MIC (Pseudomonas aeruginosa [31]): 1 µg/mL (≈ 2.61 µM); MIC (Pseudomonas aeruginosa [32]): 32 µg/mL (≈ 83.4 µM) |
| CC1(C)S[C@@H]2[C@H](NC(=O)C(C(=O)O)c3ccccc3)C(=O)N2[C@H]1C(=O)O (stereo not given in full) [CARBENICILLIN] | 512 (≈ 1350 µM) | > 512 | 64 (≈ 169 µM) | 32 (≈ 84.6 µM) | ≤ 16 | 512 (≈ 1350 µM) | 64 (≈ 169 µM) | 128 (≈ 338 µM) | ≤ 16 | 8 (≈ 21.1 µM) | 512 (≈ 1350 µM) | 128 (≈ 338 µM) | 512 (≈ 1350 µM) | 512 (≈ 1350 µM) | > 512 | > 512 | > 512 | > 512 | > 512 | > 512 | MIC (Pseudomonas aeruginosa [21]): ≤ 16 µg/mL; MIC (Pseudomonas aeruginosa [22]): 128 µg/mL (≈ 338 µM); MIC (Pseudomonas aeruginosa [23]): ≤ 16 µg/mL; MIC (Pseudomonas aeruginosa [24]): > 512 µg/mL; MIC (Pseudomonas aeruginosa [25]): 128 µg/mL (≈ 338 µM); MIC (Pseudomonas aeruginosa [26]): > 512 µg/mL; MIC (Pseudomonas aeruginosa [27]): 256 µg/mL (≈ 677 µM); MIC (Pseudomonas aeruginosa [28]): 256 µg/mL (≈ 677 µM); MIC (Pseudomonas aeruginosa [29]): > 512 µg/mL; MIC (Pseudomonas aeruginosa [30]): 512 µg/mL (≈ 1350 µM); MIC (Pseudomonas aeruginosa [31]): 128 µg/mL (≈ 338 µM); MIC (Pseudomonas aeruginosa [32]): 256 µg/mL (≈ 677 µM) |
